The values that follow come from US20160194683A1, “Gas Biosensors” (priority 2013, published 2016).

Series [1] has as its target XylR of Pseudomonas putida (Pseudomonas putida, UniProt P06519).
Series [2] relates to TbuT of Ralstonia pickettii. To be noted: host E. coli; tbuAlp-luxAB; cited from earlier work.
A further series deals with T1, TodST of P. putida (Pseudomonas putida, UniProt A5W4E3).
T1 construct: host or cells: P. putida str; F1
The settings on record: host P. putida str. F1; todXp-luxCDABE; cited from earlier work.

A further series concerns E. coli MG1655. The experiment in a line: Growth of E. coli MG1655 MHT integration strains in LB plus 200 mM KBr. To be noted: headspace gas collected at 5 hrs. Type of series: cell-based. An excerpt: Three strains carrying an integrated Batis maritima MHT gene (BmMHT) were created by coupling the BmMHT gene to a constitutive promoter (P14) and three ribosomal binding sites (RBS) with different strengths (BCD2, BCD8, BCD14) in the integration vector pOSIP. Each was integrated into the phage 186 attachment site within the genome of E. coli MG1655 using the site specific recombinase from phage 186. Strains having the desired chromosomal insertions were verified by PCR.
Cells with a genomic copy of the MHT construct under control of the three different RBS were then tested for MHT activity by growing the cells in LB plus 200 mM KBr. Headspace gas was collected at 5 hrs, and CH3Br measured by GC-MS.
The CH3Br gas was readily detectable in the headspace, whereas the uninduced vector control cells produced no gas at all.

Series [3] relates to FruR of Erwinia herbicola. The settings on record: cited from earlier work.
Another series has as its target AraC of E. coli (Escherichia coli, UniProt P0A9E0). To be noted: cited from earlier work.
Series [4] has as its system PhnR of Burkholderia sartisoli. The settings on record: host B. sartisoli; phnSp-luxAB; cited from earlier work.
The target in the next series is T2, NahR of P. putida (Pseudomonas putida, UniProt P10183).
T2 construct: host or cells: P. putida
T2 sequence (P10183 1-300): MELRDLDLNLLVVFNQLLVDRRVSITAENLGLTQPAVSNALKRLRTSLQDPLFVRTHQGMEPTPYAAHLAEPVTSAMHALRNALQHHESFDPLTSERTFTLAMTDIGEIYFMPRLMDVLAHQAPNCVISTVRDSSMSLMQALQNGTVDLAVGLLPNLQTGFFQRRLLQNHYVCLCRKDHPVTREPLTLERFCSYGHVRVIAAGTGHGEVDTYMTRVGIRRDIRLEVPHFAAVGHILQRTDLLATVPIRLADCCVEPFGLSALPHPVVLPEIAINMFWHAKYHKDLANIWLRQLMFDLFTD
To be noted: host P. putida; nahGp-luxAB; cited from earlier work.

The test system of another series is DmpR of P. putida. The settings on record: host P. putida; Po-luxAB; cited from earlier work.
Series [5] relates to SOS response proteins of B. subtilis. The settings on record: host B. subtilis; yorBp-lucFF; cited from earlier work.
Another series deals with MphR of E. coli. The settings on record: host E. coli; mphAp-lacZ; cited from earlier work.
Series [6] has as its system SpoIIID and σ^E of B. subtilis. To be noted: host B. subtilis; yheI-lucFF; cited from earlier work.
The test system of the next series is DnaK and σ32 of E. coli. The settings on record: host E. coli; dnaKp-luxCDABE; increase in intracellular misfolded proteins; cited from earlier work.
Series [7] relates to Crp-cAMP transcriptional dual regulator of E. coli. To be noted: host E. coli; grpEP-luxCDABE; increase in intracellular misfolded proteins; cited from earlier work.
In the next series the test system is ArsR of E. coli. To be noted: host E. coli; arsRp-luxAB; cited from earlier work.
Series [8] has as its system RecA-LexA of E. coli. To be noted: host E. coli; reAp-luxCDABE; cited from earlier work.
The test system of series [9] is RecA-LexA of E. coli. The settings on record: host E. coli; sfiA-lacZ; cited from earlier work.
Setting [10] is: host Escherichia coli; Pu-lucFF; cited from earlier work.

Read-outs that look alike come from different tables or passages of the source.

Sequence of XylR of Pseudomonas putida (P06519 whole entry): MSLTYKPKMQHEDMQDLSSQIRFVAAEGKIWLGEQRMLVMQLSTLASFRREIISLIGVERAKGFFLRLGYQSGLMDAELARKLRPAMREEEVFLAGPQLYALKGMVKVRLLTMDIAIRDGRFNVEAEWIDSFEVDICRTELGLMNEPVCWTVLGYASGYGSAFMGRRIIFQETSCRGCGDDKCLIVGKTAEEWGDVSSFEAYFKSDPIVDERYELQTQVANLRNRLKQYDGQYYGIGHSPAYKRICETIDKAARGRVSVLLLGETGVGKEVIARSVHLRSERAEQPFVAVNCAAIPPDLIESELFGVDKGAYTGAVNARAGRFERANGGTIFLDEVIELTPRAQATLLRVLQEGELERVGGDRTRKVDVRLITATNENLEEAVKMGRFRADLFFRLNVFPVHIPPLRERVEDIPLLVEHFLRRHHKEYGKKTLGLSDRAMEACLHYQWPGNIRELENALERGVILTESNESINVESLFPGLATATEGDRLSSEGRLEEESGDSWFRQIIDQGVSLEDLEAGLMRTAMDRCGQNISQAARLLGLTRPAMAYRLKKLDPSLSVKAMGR
T1 sequence (A5W4E3 whole entry): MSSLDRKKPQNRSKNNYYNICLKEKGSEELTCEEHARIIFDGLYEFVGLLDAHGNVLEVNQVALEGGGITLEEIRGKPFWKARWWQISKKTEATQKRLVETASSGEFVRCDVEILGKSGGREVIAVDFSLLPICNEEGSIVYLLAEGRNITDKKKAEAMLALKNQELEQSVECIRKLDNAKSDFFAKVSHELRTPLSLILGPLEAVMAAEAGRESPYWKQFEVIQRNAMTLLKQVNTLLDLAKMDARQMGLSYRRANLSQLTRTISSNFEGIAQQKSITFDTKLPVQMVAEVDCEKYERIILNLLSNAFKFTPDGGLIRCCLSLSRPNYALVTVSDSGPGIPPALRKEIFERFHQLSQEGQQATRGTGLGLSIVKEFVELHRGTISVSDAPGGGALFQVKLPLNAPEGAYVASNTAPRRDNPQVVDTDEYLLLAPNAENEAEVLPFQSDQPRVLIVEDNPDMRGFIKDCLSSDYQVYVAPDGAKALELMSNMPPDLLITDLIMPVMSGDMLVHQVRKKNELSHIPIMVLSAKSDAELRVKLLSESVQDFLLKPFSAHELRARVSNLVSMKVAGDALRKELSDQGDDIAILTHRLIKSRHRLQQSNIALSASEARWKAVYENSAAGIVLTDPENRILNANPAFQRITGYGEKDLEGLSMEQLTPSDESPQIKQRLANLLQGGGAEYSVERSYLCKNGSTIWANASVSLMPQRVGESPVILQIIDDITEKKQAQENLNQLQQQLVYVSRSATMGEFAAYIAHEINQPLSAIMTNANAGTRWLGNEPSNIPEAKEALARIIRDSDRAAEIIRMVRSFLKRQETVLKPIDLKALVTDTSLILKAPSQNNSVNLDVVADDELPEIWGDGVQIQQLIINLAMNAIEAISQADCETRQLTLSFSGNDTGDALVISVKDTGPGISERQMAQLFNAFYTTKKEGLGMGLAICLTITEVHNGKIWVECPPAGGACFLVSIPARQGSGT
Sequence of AraC of E. coli (P0A9E0 whole entry): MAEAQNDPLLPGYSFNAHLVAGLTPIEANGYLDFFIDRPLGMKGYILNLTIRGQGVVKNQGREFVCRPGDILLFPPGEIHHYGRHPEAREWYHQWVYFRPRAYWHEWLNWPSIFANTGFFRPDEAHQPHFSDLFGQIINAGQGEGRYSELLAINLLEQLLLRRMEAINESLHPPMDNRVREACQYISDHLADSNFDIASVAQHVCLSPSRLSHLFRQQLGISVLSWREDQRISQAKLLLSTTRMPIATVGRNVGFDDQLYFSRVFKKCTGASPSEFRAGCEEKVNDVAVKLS

As to `Cc1cccc(CO)c1` [3-methylbenzylalcohol], in series [1] (E. coli, firefly luciferase under XylR and Pu; means±standard deviations; read-out: K1/2 of luminescence concentration dependence; cited from earlier work), the EC50 was 2690 µM.
Take `c1ccccc1` [Benzene]: the Detection sensitivity in [2] is 0.24 µM; at TodST of P. putida, 0.3 µM; in series [1] (setting [10]) it was 40 µM.
For the compound `CBr` [CH3Br], the “Toxicity to cells (cell growth)” value in the series on E. coli MG1655 is reported as “Neither the bromine ions, nor the CH3Br gas were toxic”.
For the compound `O=C(CO)[C@@H](O)[C@H](O)[C@H](O)CO` [Fructose], the Detection sensitivity in series [3] is around 2 µM.
In the case of `O=C[C@H](O)[C@@H](O)[C@@H](O)CO` [L-Arabinose], the Detection sensitivity at AraC of E. coli was 0.5 µM.
As for `c1ccc2ccccc2c1` [Naphthalene], the results for the Detection sensitivity (in series [4]; at NahR of P. putida) were 0.17 µM and 10 nM, respectively.
In the case of `Oc1ccccc1` [Phenol], the values for the Detection sensitivity in the series with DmpR of P. putida and on TodST of P. putida were 3 µM and 0.3 µM, respectively.
Turning to `Br` [bromine ions], the “Toxicity to cells (cell growth)” value in the series with E. coli MG1655 is “Neither the bromine ions, nor the CH3Br gas were toxic”.
As to `O=C(O)c1cn(C2CC2)c2cc(N3CCNCC3)c(F)cc2c1=O` [ciprofloxacin], in series [5], the Detection sensitivity is 60 nM.
Take `CC[C@H]1OC(=O)[C@H](C)[C@@H](O[C@H]2C[C@@](C)(OC)[C@@H](O)[C@H](C)O2)[C@H](C)[C@@H](O[C@@H]2O[C@H](C)C[C@H](N(C)C)[C@H]2O)[C@](C)(O)C[C@@H](C)C(=O)[C@H](C)[C@@H](O)[C@]1(C)O` [erythromycin]: in the series with MphR of E. coli, the Detection sensitivity is around 10 µM.
On to `CC(=O)NC[C@H]1CN(c2ccc(N3CCOCC3)c(F)c2)C(=O)O1` [linezolid], for which the Detection sensitivity in [6] is 0.1 µM.
In the case of `Cc1cccc(C)c1` [m-xylene], the Detection sensitivity on TodST of P. putida is 0.3 µM. For the same compound, the EC50 in series [1] (read-out: K1/2 of luminescence concentration dependence; E. coli, firefly luciferase under XylR and Pu; means±standard deviations; cited from earlier work) was 39 ± 3.8 µM.
For `CO` [methanol], in the series on DnaK and σ32 of E. coli, the Detection sensitivity is 0.25M methanol,.
As to `Cc1ccc(C)cc1` [p-xylene], on TodST of P. putida, the Detection sensitivity was 0.3 µM.
Turning to `Oc1c(Cl)c(Cl)c(Cl)c(Cl)c1Cl` [pentachlorophenol], the Detection sensitivity in series [7] is reported as 0.14 nM.
`c1ccc2c(c1)ccc1ccccc12` [phenanthrene]: in series [4], the Detection sensitivity is 0.17 µM.
For `O=C(O)c1ccccc1O` [salicylate], the Detection sensitivity on NahR of P. putida is recorded as 10 nM.
As to `OC[C@H]1O[C@@](CO)(O[C@H]2O[C@H](CO)[C@@H](O)[C@H](O)[C@H]2O)[C@@H](O)[C@@H]1O` [sucrose], the Detection sensitivity in series [3] is around 2 µM.
Regarding `Cc1ccccc1` [toluene], the Detection sensitivity in [2] was 0.24 µM; on TodST of P. putida it was 0.3 µM; in series [1] (setting [10]), 40 µM.
Take `ClC=C(Cl)Cl` [trichloroethene]: on TodST of P. putida, the Detection sensitivity is 0.3 µM.
Regarding Arsenite, the Detection sensitivity in the series on ArsR of E. coli is on record as 5 nM.
Regarding Xylene, the Detection sensitivity was 0.24 µM in series [2] and 40 µM in series [1] (setting [10]).
Take antimonite: the Detection sensitivity with ArsR of E. coli is reported as 5 nM.
In the case of mitomycin C, the Detection sensitivity was 0.2 nM mitomycin C with RecA-LexA of E. coli [8] and 4 nM mitomycin C with RecA-LexA of E. coli [9].
